# How the values were obtained:
# OCT2/SLC22A2 = biological target: T1, OCT2/SLC22A2 (Homo sapiens, UniProt O15244); test: OCT2/SLC22A2 activity (basolateral ASP uptake); format: cell-based
# T1 construct: investigated in ciPTEC-14.4 by measuring the activity and expression of the solute carrier tansporter (SLC) OCT2/SLC22A2; endogenous in cells; host or cells: ciPTEC-14.4 grown on Transwell filters
# T1 sequence (O15244 1-555): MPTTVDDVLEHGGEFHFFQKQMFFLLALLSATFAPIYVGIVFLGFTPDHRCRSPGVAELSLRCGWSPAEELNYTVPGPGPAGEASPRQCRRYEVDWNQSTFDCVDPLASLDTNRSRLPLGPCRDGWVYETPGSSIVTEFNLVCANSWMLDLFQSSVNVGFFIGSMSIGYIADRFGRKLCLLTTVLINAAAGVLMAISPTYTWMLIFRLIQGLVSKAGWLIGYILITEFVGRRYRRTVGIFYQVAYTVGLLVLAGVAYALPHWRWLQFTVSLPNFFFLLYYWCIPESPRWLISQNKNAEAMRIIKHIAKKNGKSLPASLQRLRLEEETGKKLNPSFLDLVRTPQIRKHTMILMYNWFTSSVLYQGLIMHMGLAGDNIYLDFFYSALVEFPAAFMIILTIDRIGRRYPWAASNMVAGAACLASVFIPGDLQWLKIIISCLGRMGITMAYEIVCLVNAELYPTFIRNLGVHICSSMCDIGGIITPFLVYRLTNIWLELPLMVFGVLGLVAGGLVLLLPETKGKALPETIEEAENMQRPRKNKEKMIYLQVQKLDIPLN
# Procedure: Transport of xenobiotics across the basolateral membrane was investigated in ciPTEC-14.4 by measuring the activity and expression of the solute carrier tansporter (SLC) OCT2/SLC22A2 using a method adapted from Brown et al. Cells were grown on Transwell®-Clear polyester membranes as described before. Activity of OCT2 was measured by incubating 1 μM fluorescent OCT2 substrate 4-(4-(dimethylamino)styryl)-N-methylpyridinium iodide (ASP, Invitrogen) in Hepes-Tris buffer for 1 min at 37° C. at the basal compartment. To inhibit OCT2 mediated uptake, cells were exposed to 100 μM tetrapentylammonium (TPA) at both apical and basal compartments for 10 min prior to uptake of ASP. Additionally, one set of experiments was performed at 4° C. After incubation, transport was arrested using 1 mM ice-cold TPA. Cells were homogenized using 250 μl Hepes-Tris-Triton (0.1%) buffer for 30 min, followed by analyzing fluorescence intensity (excitation 450 nm, emission 642 nm) using Victor3 Multiplate Reader (Perkin Elmer Inc.). Data are expressed as mean+i-SE.
# [1] = test system: sodium-dependent transporters NaPi-IIa (SLC34A1) and NaPi-IIc (SLC34A3); test: Sodium-dependent phosphate uptake (32PO4); format: cell-based, human
# Procedure: Phosphate uptake was performed in confluent monolayers using 32PO4 (Perkin Elmer, Waltham Mass., USA) as described earlier. Cells cultured for 10 days at 37° C. were incubated with 0.2 mM KH2PO4 (10 μCi/ml) for 5 min in four independent experiments, in the presence of 137 mM sodium or 137 mM NMDG to study sodium-dependent transport. Additionally, time- (0.5; 1; 2; 5; 10; 15; 30 or 60 min) and concentration-dependent (0.02; 0.07; 0.22; 0.66 or 2 mM PO4) uptake was studied. Data are expressed as mean+/−SE.
# (§1) Michaelis-Menten curve fitting for calculation of Km and Vmax values was performed by non-linear regression analysis using GraphPad Prism 4.03 software. Differences in substrate transport in presence or absence of inhibitors or unlabelled analogues were assessed by a paired t-test.
# [2] = test system: opossum kidney (OK) cells; conditions: reference [20], read-out: Km of apical phosphate transport; cited from earlier work
# ciPTEC-14.4 = test: Albumin uptake by endocytosis (BSA-FITC uptake); format: cell-based, human
# Procedure: The ability of ciPTEC-14.4 to reabsorb albumin was investigated by the incubation of confluent monolayers in 24 well plates with 50 μg/ml BSA-FITC (Sigma-Aldrich) for 30 min at 37° C. unless described otherwise. Uptake was arrested using ice-cold PBS and cells were detached using trypsin, fixed by paraformaldehyde (0.5%) in PBS and analyzed using flow cytometry or immuno-fluorescence microscopy. Concentration- and temperature-dependent uptake, was investigated using a concentration range BSA-FITC (0; 3.7; 11; 33; 100; 300 μg/ml) at 37° C. and on ice for 30 min. Uptake inhibition was studied in three independent experiments by incubating the cells with BSA-FITC (50 μg/ml) in addition of excess unlabelled BSA (10 mg/ml) or recombinant RAP (1 μM), which was a kind gift of Dr. M. Nielsen (University of Aarhus, Denmark). Uptake inhibition by RAP was further examined using a dilution range of RAP. BSA uptake in saturation experiments are plotted as mean fluorescence intensity and in inhibition experiments as mean (+/−SE) percentage uptake compared to control condition.
# as §1
# OK cells = conditions: reference [12]; cited from earlier work
molecule,measurement,setting,value
"CN(C)c1ccc(/C=C/c2cc[n+](C)cc2)cc1 [ASP, 4-(4-(dimethyl-amino)styryl)-N-methylpyridinium iodide]","inhibition at 1 min, 1 μM",OCT2/SLC22A2,30%
"CCCCC[N+](CCCCC)(CCCCC)CCCCC [TPA, tetrapentylammonium]","inhibition at 1 min, 100 μM","OCT2/SLC22A2; 100 μM TPA, 1 μM ASP, 1 min 37° C., basal compartment, p<0.05, read-out: inhibition of ASP transport",36%
"O=P([O-])(O)O.[K+] [phosphate, KH2PO4]",decrease of phosphate uptake in the absence of sodium,"[1]; 0.2 mM Pi, 5 min, NMDG as sodium replacement, p<0.001",approximately 86%
same,Km,"[1]; ciPTEC-14.4, read-out: apparent Km of sodium-dependent phosphate uptake",120 µM
same,Km,[2],370 µM
BSA-FITC: FITC labelled bovine serum albumin,apparent Km of BSA-FITC uptake,"ciPTEC-14.4; ciPTEC-14.4, passage 20-25, 30 min, 37° C.",126 µg/mL
albumin,apparent Km of albumin uptake,OK cells,20 µg/mL
unlabelled FITC: excess unlabelled bovine serum albumin used as competitor of BSA-FITC uptake,inhibition of BSA-FITC uptake,"ciPTEC-14.4; 200-fold excess unlabelled (10 mg/ml), BSA-FITC 50 μg/ml, p<0.01",54%
"RAP: recombinant receptor associated protein, known inhibitor of albumin endocytosis by binding to multi-ligand receptor megalin (protein, UniProt P30533 35-357, looked up) Alpha-2-macroglobulin …: YSREKNQPKPSPKRESGEEFRMEKLNQLWEKAQRLHLPPVRLAELHADLKIQERDELAWKKLKLDGLDEDGEKEARLIRNLNVILAKYGLDGKKDARQVTSNSLSGTQEDGLDDPRLEKLWHKAKTSGKFSGEELDKLWREFLHHKEKVHEYNVLLETLSRTEEIHENVISPSDLSDIKGSVLHSRHTELKEKLRSINQGLDRLRRVSHQGYSTEAEFEEPRVIDLWDLAQSANLTDKELEAFREELKHFEAKIEKHNHYQKQLEIAHEKLRHAESVGDGERVSRSREKHALLEGRTKELGYTVKKHLQDLSGRISRARHNEL",inhibition of BSA-FITC uptake,"ciPTEC-14.4; 1 μM RAP, BSA-FITC 50 μg/ml, 30 min 37° C., p<0.05",41%
same,"inhibition of BSA-FITC uptake, dilution range of RAP",ciPTEC-14.4; BSA-FITC 50 μg/ml,inhibited the uptake of BSA-FITC in a concentration-dependent manner

# Reference: patent US20130130223A1, “NOVEL CONDITIONALLY IMMORTALIZED HUMAN PROXIMAL TUBULE CELL LINE EXPRESSING FUNCTIONAL INFLUX AND EFFLUX TRANSPORTERS” (priority 2009, published 2013)
